Read-outs that look alike come from different tables or passages of the source.
What was measured:
Format in all cases: cell-based, human
[1] = tested on: p-ERK in NCI-H441 cells (KRAS G12V mutation); assay: Cell p-ERK assay (HTRF) in NCI-H441 cells; conditions: NCI-H441 cells, 3 h compound incubation, HTRF p-ERK T202/Y204, read-out: H441 p-ERK IC50
In short: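 Cells are plated (AsPC-1 at 10000, NCI-H441 at 20000 per well) and cultured overnight. Next day compound is added in a 3.16-fold dilution series with 0.1% DMSO and left 3 h. After lysis, p-ERK antibodies incubate 4 h before HTRF reading and four-parameter IC50 fitting.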

[2] = tested on: AsPC-1 cells (KRAS G12D mutation); assay: 3D cell proliferation assay (CellTiter Glo-3D), AsPC-1; conditions: medium with 2% FBS, read-out: AsPC-1 AP IC50
Source text: MIA PaCa-2 cells were purchased from ATCC, Cat. No. CRL-1420; AsPC-1 cells were purchased from ATCC, Cat. No. CRL-1682; NCI-H441 cells were purchased from ATCC, Cat. No. HTB-174: NCI-H1975 cells were purchased from ATCC. Cat. No. CRL-5908; DMEM medium was purchased from Gibco, Cat. No. 11995-065: RPMI-1040 medium was purchased from Gibco. Cat. No. H 18754093; FBS was purchased from Gibco, Cat. No. 10099-141C. penicillin, streptomycin double-antibiotic solution (PS) was purchased from Gibco, Cat. No. 15140-122; Horse serum was purchased from Gibco. Cat. No. 16050130: trypsin (containing EDTA) was purchased from Gibco, Cat. No. 25200-072; DMSO was purchased from VWRAMRESCO, Cat. No. 0231-500ML; 384-well cell culture plates were purchased from Corning, Cat. No. 3830; white-bottomed, opaque 384-well assay plates were purchased from Corning, Cat. No. 3570. CellTiter Glo-3D) kit was purchased from Promega. Cat. No. G9683; cell counter was purchased from CHEMOMETEC, model: NC-200: microplate reader was purchased from PerkinElmer, model: EnVision.
MIA PaCa-2, a human pancreatic cancer cell strain endogenously containing a KRAS^G12C mutation, was cultured in a complete medium containing DMEM+10% FBS+2.5% Horse serum+1% PS. AsPC-1, a human pancreatic cancer cell strain endogenously containing a […] mutation, was cultured in a complete medium containing RPMI-1640+10% FBS+1% PS. NCI-H441 cells, a human lung cancer cell strain endogenously containing a […] mutation, were cultured in a complete medium containing RPMI-1640+10% FBS+1% PS. NCI-H1975, a KRAS wild-type human lung cancer cell strain whose cell proliferation depends on KRAS activity, was cultured in a complete medium containing RPMI-1640+10% FBS+1% PS.
The cells were digested with trypsin (containing EDTA), collected in their respective low-serum complete media containing 2% FBS (for MIA Paca-2 cell culture: DMEM+2% FBS+0.5% Horse serum+1% PS), and counted. After the cell density was adjusted as required, 200 MIA PaCa-2 cells, 800 AsPC-1 cells, 800 NCI-H441 cells, or 400 NCI-H1975 cells per well were seeded into a 384-well cell culture plate, with the volume of the medium in each well being 45 μL. The cell culture plate was incubated in an incubator at 37° C. with 5% CO2, overnight. A series of 3.16-fold gradient dilutions of a 1000× compound stock solution were prepared with DMSO, and then diluted 100-fold with the complete medium containing 2% FBS described above to give 10- compound stock solutions. On the day after cell seeding, 5 μL of the 10- compound stock solution was added to each cell culture well. As a result, the final concentration of the compound in the cell culture well became 1×, and the DMSO content in the well was 0.1%. In addition to the compound-treated wells described above, cell-containing DMSO control wells (with 5 μL of the complete medium containing 1% DMSO added to each well) and cell-free medium control wells (containing 50 μL of the complete medium with 2% FBS) were also set. The culture plate was incubated in an incubator at 37° C. with 5% CO2 for another 5 days, and then 30 μL of CellTiter-Glo working solution was added to each well. The mixture was well mixed, incubated for 30 min, left to stand at room temperature for 30 min, and then transferred to a white-bottomed, opaque 384-well assay plate at 40 μL/well. The chemiluminescence values (RLU) were measured using a microplate reader, and the cell proliferation inhibition rate for each well was calculated: IR (%)=(RLUDMSO—RLUcompound)/(RLUDMSO−RLUblank)×100%, where RLUDMSO is the average RLU signal value from the DMSO control well samples, RLUblank is the average RLU signal value from the medium control well samples, and RLUcompound is the RLU signal value from the compound-treated well samples. […]

[3] = tested on: NCI-H441 cells; assay: 3D cell proliferation assay (CellTiter Glo-3D), NCI-H441; conditions: medium with 2% FBS, read-out: H441 AP IC50
In short: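 Proliferation of the KRAS-mutant lines NCI-H441 and AsPC-1 is measured over 5 days of compound treatment in medium with 2% FBS. Inhibition is computed from luminescence relative to DMSO and cell-free controls, and IC50 comes from a four-parameter curve.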

[4] = Homo sapiens, ASPC1, 3D cell proliferation (CellTiter Glo-3D)
[5] = Homo sapiens, NCI-H441, 3D cell proliferation (CellTiter Glo-3D)
[6] = 3D cell proliferation (CellTiter Glo-3D)

SMILES	IC50 ([1]; Homo sapiens, NCI-H441, 3 h) [nM]	IC50 [2, 4] [nM]	IC50 [3, 5] [nM]	IC50 [1] [nM]	IC50 [2, 6] [nM]	IC50 [3, 6] [nM]
CCn1c(-c2cc(C#CC34CCCN3CCC4)cnc2[C@H](C)OC)c2c3cc(ccc31)-c1csc(n1)C[C@H](NC(=O)[C@H]1[C@H](C)[C@@H]1C)C(=O)N1CCC[C@H](N1)C(=O)OCC(C)(C)C2 (atropisomer, axis not shown; (Ra)) [Compound Z794, (1r,2R,3S)—N-((6^3S,4S,Z)—(Ra)-1^2-ethyl-1^2-(2-((S)-1-methoxyethyl)-5-((tetrahydro-1H-pyrrolizin-7a(5H)-yl)ethynyl)pyridin-3-yl)-10,10-dimethyl-5,7-dioxo-6^1,6^2,6^3,6^4,6^5,6^6-hexahydro-1^1H-8-oxa-2(4,2)-thiazola-1(5,3)-indola-6(1,3)-pyridazinacycloundecaphane-4-yl)-2,3-dimethylcyclopropane-1-carboxamide]	0.49	2.07	0.66	–	–	–
CO[C@@H](C)c1ncc(C#CCN2CCS(=O)(=O)CC2)cc1-c1c2c3cc(ccc3n1C(C)C)-c1csc(n1)C[C@H](Nc1nnc3cc(C)ccn13)C(=O)N1CCC[C@H](N1)C(=O)OCC(C)(C)C2 (atropisomer, axis not shown; (Ra)) [Compound Z913-1, (6^3S,4S,Z)—(Ra)-1^1-(5-(3-(1,1-dioxidothiomorpholino)prop-1-yn-1-yl)-2-((S)-1-methoxyethyl)pyridin-3-yl)-1′-isopropyl-10,10-dimethyl-4-((7-methyl-[1,2,4]triazolo[4,3-a]pyridin-3-yl)amino)-6^1,6^2,6^3,6^4,6^5,6^6-hexahydro-1^1H-8-oxa-2(4,2)-thiazola-1(5,3)-indola-6(1.3)-pyridazinacycloundecaphane-5,7-dione]	–	8.88	4.18	–	–	–
CCn1c(-c2cc(C#CCN3CCC(=O)N(C)CC3)cnc2[C@H](C)OC)c2c3cc(ccc31)-c1csc(n1)C[C@H](Nc1nnc3cc(C)ccn13)C(=O)N1CCC[C@H](N1)C(=O)OCC(C)(C)C2 (atropisomer, axis not shown; (Ra)) [Compound Z957, (6^3S,4S2)-1-(5-(3-(4-methyl-1,4-diazepan-5-one-1-yl)prop-1-yn-1-yl)-(Ra)-2-((S)-1-methoxyethyl)pyridin-3-yl)-1^1-ethyl-10,10-dimethyl-4-((7-methyl-[,2,4]triazolo[4,3-a]pyridin-3-yl)amino)-6^1,6^2,6^3,6^4,6^5,6^6-hexahydro-1^1H-8-oxa-2(4,2)-thiazola-1(5,3)-indola-6(1,3)-pyridazinacycloundecaphane-5,7-dione]	–	–	–	2.63	6.69	2.47
CCn1c(-c2cc(C#CCN3CCC(F)(F)CC3)cnc2[C@H](C)OC)c2c3cc(ccc31)-c1csc(n1)C[C@H](Nc1nnc3cc(C)ccn13)C(=O)N1CCC[C@H](N1)C(=O)OCC(C)(C)C2 (atropisomer, axis not shown; (Ra)) [Compound Z958, (6^3S,4S,Z)—(Ra)-1-(5-(3-(4,4-difluoropiperidin-1-yl)prop-1-yn-1-yl)-2-((S)-1-methoxyethyl)pyridin-3-yl)-1^1-ethyl-10,10-dimethyl-4-((7-methyl-[1,2,4]triazolo[4,3-a]pyridin-3-yl)amino)-6^1,6^2,6^3,6^4,6^5,6^6-hexahydro-1^1H-8-oxa-2(4,2)-thiazola-1(5,3)-indola-6(1,3)-pyridazinacycloundecaphane-5,7-dione]	5.78	6.12	4.93	–	–	–
CCn1c(-c2cc(C#CCN3CCOC[C@@H](O)C3)cnc2[C@H](C)OC)c2c3cc(ccc31)-c1csc(n1)C[C@H](Nc1nnc3cc(C)ccn13)C(=O)N1CCC[C@H](N1)C(=O)OCC(C)(C)C2 (atropisomer, axis not shown; (Ra)) [Compound Z966, (6^3S,4S,Z)-1^1-ethyl-(Ra)-1^2-(5-(3-((S)-6-hydroxy-1,4-oxazepan-4-yl)prop-1-yn-1-yl)-2-((S)-1-methoxyethyl)pyridin-3-yl)-10,10-dimethyl-4-((7-methyl-[1,2,4]triazolo[4,3-a]pyridin-3-yl)amino)-6^1,6^2,6^3,6^4,6^5,6^6-hexahydro-1^1H-8-oxa-2(4,2)-thiazola-1(5,3)-indola-6(1,3)-pyridazinacycloundecaphane-5,7-dione]	–	9.41	4.91	–	–	–
CCn1c(-c2cc(C#CCN3CC(C#N)C3)cnc2[C@H](C)OC)c2c3cc(ccc31)-c1csc(n1)C[C@H](Nc1nnc3cc(C)ccn13)C(=O)N1CCC[C@H](N1)C(=O)OCC(C)(C)C2 (atropisomer, axis not shown; (Ra)) [Compound Z974, 1-(3-(5-((6^3S,4S,Z)-1^1-ethyl-10,10-dimethyl-4-((7-methyl-[1,2,4]triazolo[4,3-a]pyridin-3-yl)amino)-5,7-dioxo-6^1,6^2,6^3,6^4,6^5,6^6-hexahydro-1^1H-8-oxa-2(4,2)-thiazola-1(5,3)-indola-6(1,3)-pyridazinacycloundecaphane-1^2-yl)-6-(Ra)—((S)-1-methoxyethyl)pyridin-3-yl)prop-2-yn-1-yl)azetidine-3-carbonitrile]	2.12	5.6	3.46	–	–	–
CCn1c(-c2cccnc2[C@H](C)OC)c2c3cc(ccc31)-c1csc(n1)C[C@H](NC(=O)C(C)(C)F)C(=O)N1CCC[C@H](N1)C(=O)OCC(C)(C)C2 (single isomer, unassigned) [Compound Z1]	–	565	446	–	–	–
CCn1c(-c2cc(C(C)N3CCN(C)CC3)cnc2[C@H](C)OC)c2c3cc(ccc31)-c1csc(n1)C[C@H](NC(=O)[C@H]1[C@H](C)[C@@H]1C)C(=O)N1CCC[C@H](N1)C(=O)OCC1(CC1)C2 (stereo partly drawn) [Compound Z456]	–	–	–	61.3	151	125
CCn1c(-c2cc(C#CCN3CCCOCC3)cnc2[C@H](C)OC)c2c3cc(ccc31)-c1csc(n1)C[C@H](Nc1nnc3cc(C)ccn13)C(=O)N1CCC[C@H](N1)C(=O)OCC(C)(C)C2 [Compound Z955, (6^3S,4S2)-1^2-(5-(3-(1,4-oxazepan-4-yl)prop-1-yn-1-yl)-2-((S)-1-methoxyethyl)pyridin-3-yl)-1^1-ethyl-10,10-dimethyl-4-((7-methyl-[1,2,4]triazolo[4,3-a]pyridin-3-yl)amino)-6^1,6^2,6^3,6^4,6^5,6^6-hexahydro-1^1H-8-oxa-2(4,2)-thiazola-1(5,3)-indola-6(1,3)-pyridazinacycloundecaphane-5J7-dione]	2.6	4.82	2.96	–	–	–

Source: patent publication US20260234165A1, “MACROCYCLIC COMPOUNDS, PREPARATION METHOD THEREFOR, AND USE THEREOF” (GENFLEET THERAPEUTICS (SHANGHAI) INC., priority 2004, published 2026)
